This is an account of results in patent US7282522B2, “Hydroxamic acid derivatives and the method for preparing thereof” (Amorepacific Corporation, priority 2003, dated 2007).

One data set relates to white guinea pigs. The data set is described as follows: Phototoxicity test (UVA irradiation). The settings on record: for Evaluation (phototoxicity): 1%(w/v) solution, UVA 15 J/cm^2; for Phototoxic index: 50 μl of 1%(w/v) solution, UVA 320~380 nm 15 J/cm^2, observed 24, 48 and 72 hours.
The next data set has as its target T1, RARγ (Homo sapiens, UniProt P13631).
T1 construct: expressed in transfected cells; host or cells: CV-1 cells (ATCC)
T1 sequence (P13631 1-454): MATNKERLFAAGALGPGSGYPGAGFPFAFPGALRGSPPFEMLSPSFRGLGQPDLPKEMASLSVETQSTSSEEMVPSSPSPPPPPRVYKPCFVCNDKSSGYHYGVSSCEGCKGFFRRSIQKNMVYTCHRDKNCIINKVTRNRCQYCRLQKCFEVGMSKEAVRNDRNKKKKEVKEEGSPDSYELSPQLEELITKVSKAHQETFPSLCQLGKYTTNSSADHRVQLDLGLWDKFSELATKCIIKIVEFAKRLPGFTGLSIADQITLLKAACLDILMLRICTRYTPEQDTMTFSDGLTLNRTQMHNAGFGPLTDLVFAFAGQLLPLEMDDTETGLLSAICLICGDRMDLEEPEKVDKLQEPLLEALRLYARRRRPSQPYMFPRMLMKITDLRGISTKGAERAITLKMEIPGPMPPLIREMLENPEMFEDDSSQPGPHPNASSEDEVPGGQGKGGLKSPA
Put plainly: RARE-luciferase reporter assay in transfected CV-1 cells (affinity to retinoic acid receptor), RARγ. The settings on record: treated 24 hours at final concentration 10^−4M, control group 5000. The data set is classed as cell-based. The procedure, abridged:
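CV-1 cells in DMEM with 2.5% FBS, 5,000 per well, transfected 24 h after seeding with 10 ng pECE-RARα, pECE-RARγ, 100 ng RARE-tk-Luc reporter and 100 ng β-galactosidase vector. Read-out is RARE-driven luciferase.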
For orientation: A reporter such as luciferase makes a cellular process visible.

Another data set deals with rabbits. Put plainly: Primary skin irritation test on animals (Draize P.I.I.). The settings on record: depilated back; for P.I.I. (Primary Irritation Index): 0.5 ml of 1% solution in 1,3-butylene glycol:ethanol 7:3, observed 24 or 72 hours later; for Evaluation (skin irritation): 1% solution, according to Draize's P.I.I.
For a further data set, the system named is procollagen type I. Put plainly: Effect on collagen biosynthesis (procollagen type I ELISA) in human fibroblasts. In kind it is cell-based. The note with it: 10^−4M, 24 hours, serum-free medium, relative to control group = 100. The protocol:
Human fibroblasts were seeded into 24-well plate at 1×10^5 cells per well and then cultured to 90% of growth.
For each supernatant, procollagen production was measured with procollagen type I ELISA kit.
(In general: An ELISA detects its analyte on a solid surface through an enzyme-linked reagent.)

For the next data set, the target named is T2, RARα (Homo sapiens, UniProt P10276).
T2 construct: expressed in transfected cells; host or cells: CV-1 cells (ATCC)
T2 sequence (P10276 1-462): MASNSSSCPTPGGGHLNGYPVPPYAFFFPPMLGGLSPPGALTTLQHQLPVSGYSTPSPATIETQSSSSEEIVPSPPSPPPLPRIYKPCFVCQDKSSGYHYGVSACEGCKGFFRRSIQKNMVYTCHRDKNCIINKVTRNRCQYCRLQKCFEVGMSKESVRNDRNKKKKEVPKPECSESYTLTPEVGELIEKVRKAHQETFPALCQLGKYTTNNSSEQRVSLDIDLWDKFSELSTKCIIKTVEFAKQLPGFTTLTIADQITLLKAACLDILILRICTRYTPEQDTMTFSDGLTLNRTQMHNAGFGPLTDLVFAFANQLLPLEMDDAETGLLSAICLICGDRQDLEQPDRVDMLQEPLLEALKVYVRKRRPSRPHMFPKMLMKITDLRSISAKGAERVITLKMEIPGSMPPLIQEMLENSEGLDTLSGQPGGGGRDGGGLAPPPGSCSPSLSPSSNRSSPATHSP
The data set is described as follows: RARE-luciferase reporter assay in transfected CV-1 cells (affinity to retinoic acid receptor), RARα. The data set is classed as cell-based. The note with it: treated 24 hours at final concentration 10^−4M, control group 1000. The gist of the method:
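CV-1 cells co-transfected with pECE-RARα or pECE-RARγ, RARE-tk-Luc reporter and β-galactosidase vector. Starting 24 h post-transfection, cells were treated for 24 h with compounds at a final 10^−4M; luciferase reporter read-out.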

The subject of the next data set is elastase. Put plainly: Inhibition of elastase expression in human fibroblasts (ELISA kit). In kind it is cell-based. The note with it: 10^−4M, 24 hours, serum-free medium, relative to control group = 100. The gist of the method:
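Elastase in fibroblast culture fluid quantified by sandwich ELISA: 3 h capture, then chromophore-conjugated secondary antibody, then colour development, stopped with 1M sulfuric acid. Absorbance read at 405 nm. Expression given as % of the untreated control absorbance, with control set to 100.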

In a further data set the test system is collagenase. Put plainly: Inhibition of collagenase expression in human fibroblasts (ELISA kit). In kind it is cell-based. The settings on record: 10^−4M, 24 hours, serum-free medium, relative to control group = 100. The procedure, abridged:
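Serum-starved human fibroblasts were treated for 24 h with 10^−4M test material in serum-free DMEM. Collagenase in the culture fluid was measured by sandwich ELISA read at 405 nm. Values are expressed as % of the untreated control (=100).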

Experimental for rabbits: Test was performed using fifty-six (56) of healthy male rabbits whose backs were depilated. […] 0.5ml of the test sample solution was applied to the right site of 2.5 cm×2.5 cm region on each of the depilated back. Left site with no sample treated was compared as a control. 24 hours or 72 hours later, skin abnormality such as erythema, crust and edema was observed.
Based on the score of skin response, skin irritation was evaluated according to Draize's P.I.I.(Primary Irritation Index) and compared with retinoic acid.
Experimental for white guinea pigs: Test was performed for twenty-five (25) of white guinea pigs whose backs were depilated and fixed. On both sides of the back, six(6) sites of 2 cm×2 cm, three(3) per side were sectioned. Right sites were compared as controls with no irradiation (UV non-irradiation sites) and left sites were irradiated (UV irradiation sites).
30 Minutes later, right sites were shielded with aluminum foil and UVA(320˜380 nm) was irradiated at a distance of about 10 cm therefrom using Waldmann to the final energy of 15 J/cm^2. After 24, 48 and 72 hours elapsed, skin response of guinea pig was observed. […] Evaluation was estimated for each elapsed time, i.e. 24, 48 and 72 hours and maximum scores were selected, to calculate irritation index by the following equation 3. Then, phototoxic index was calculated by the following equation 4. Irritation index=(ΣMaximum of erythema+ΣMaximum of edema)/Number of animals [Equation 3] Phototoxic index=(Irritation index of UV irradiation site)−(Irritation index of UV non-irradiation site) Equation 4]

For the compound `CC(C)c1ccc(C(=O)Nc2ccc(C(=O)NO)cc2)cc1` [Example 6, N-[4-(N-hydroxycarbamoyl)phenyl][4-isopropylphenyl]carboxyamide], in the data set on white guinea pigs, the “Evaluation (phototoxicity)” value is “No phototoxicity (lower value than 0.5, criterion value to be estimated as no phototoxicity)” and the Phototoxic index is 0. The “Luciferase activity RARγ” value on RARγ was 12300. Further, in the data set with rabbits, the “P.I.I. (Primary Irritation Index)” value is on record as 0.315 and the “Evaluation (skin irritation)” value was “No irritation”. In the data set on procollagen type I, the “Collagen biosynthesis (%)” value is given as 124%. The “Luciferase activity RARα” value at RARα amounted to 14500. In addition, the “Elastase expression (%)” value with elastase is 79%. The “Collagenase expression (%)” value with collagenase was determined as 85%.
Consider `CCCc1ccc(C(=O)N(C)c2ccc(C(=O)NO)cc2)cc1` [Example 16], for which, in the data set with white guinea pigs, the “Evaluation (phototoxicity)” value is given as “No phototoxicity (lower value than 0.5, criterion value to be estimated as no phototoxicity)” and the Phototoxic index was 0. For the same compound, at RARγ, the “Luciferase activity RARγ” value is 11200. In addition, in the data set on rabbits, the “P.I.I. (Primary Irritation Index)” value is listed as 0.567 and the “Evaluation (skin irritation)” value was “No irritation”. Also, in the data set on procollagen type I, the “Collagen biosynthesis (%)” value is 120%. Besides, the “Luciferase activity RARα” value on RARα is given as 12300. Further, the “Elastase expression (%)” value with elastase turned out to be 77%. Further, in the data set with collagenase, the “Collagenase expression (%)” value came out at 80%.
As for `CN(C(=O)c1ccc(C(=O)NO)cc1)C12CC3CC(CC(C3)C1)C2` [Example 54, [4-(N-hydroxycarbamoyl)phenyl]-N-adamantyl-N-methylcarboxyamide], in the data set on white guinea pigs, the “Evaluation (phototoxicity)” value is “No phototoxicity (lower value than 0.5, criterion value to be estimated as no phototoxicity)” and the Phototoxic index stood at 0. Besides, the “Luciferase activity RARγ” value at RARγ came to 11000. Besides, in the data set on rabbits, the “P.I.I. (Primary Irritation Index)” value is 0.567 and the “Evaluation (skin irritation)” value is given as “No irritation”. Besides, the “Collagen biosynthesis (%)” value in the data set with procollagen type I came to 121%. Also, on RARα, the “Luciferase activity RARα” value is on record as 22500. In addition, in the data set on elastase, the “Elastase expression (%)” value is 67%. Besides, the “Collagenase expression (%)” value with collagenase amounted to 83%.
For `Cc1cccc(C(=O)Nc2ccc(CC(=O)NO)cc2)c1` [Example 25, N-[4-(N-hydroxycarbamoylmethyl)phenyl][3-methylphenyl]carboxyamide], in the data set with white guinea pigs, the “Evaluation (phototoxicity)” value is “No phototoxicity (lower value than 0.5, criterion value to be estimated as no phototoxicity)” and the Phototoxic index is on record as 0. Further, the “Luciferase activity RARγ” value on RARγ turned out to be 12100. Also, in the data set on rabbits, the “P.I.I. (Primary Irritation Index)” value stood at 0.423 and the “Evaluation (skin irritation)” value is “No irritation”. In the data set with procollagen type I, the “Collagen biosynthesis (%)” value turned out to be 120%. In addition, the “Luciferase activity RARα” value at RARα is recorded as 13200. Also, the “Elastase expression (%)” value in the data set with elastase is 80%. For the same compound, the “Collagenase expression (%)” value in the data set with collagenase came to 70%.
Regarding `CCCCc1ccc(C(=O)Nc2ccc(CC(=O)NO)cc2)cc1` [Example 29, N-[4-(N-hydroxycarbamoylmethyl)phenyl][4-butylphenyl]carboxyamide], in the data set on white guinea pigs, the “Evaluation (phototoxicity)” value is “No phototoxicity (lower value than 0.5, criterion value to be estimated as no phototoxicity)” and the Phototoxic index is 0. Besides, at RARγ, the “Luciferase activity RARγ” value came to 10600. In the data set on rabbits, the “P.I.I. (Primary Irritation Index)” value is given as 0.234 and the “Evaluation (skin irritation)” value is “No irritation”. In addition, the “Collagen biosynthesis (%)” value with procollagen type I amounted to 132%. Also, at RARα, the “Luciferase activity RARα” value worked out at 18900. The “Elastase expression (%)” value in the data set with elastase was 70%. Also, in the data set on collagenase, the “Collagenase expression (%)” value came to 77%.
As to `CN(O)C(=O)Cc1ccc(NC(=O)C23CC4CC(CC(C4)C2)C3)cc1` [Example 33, 2-[4-(adamantlycarbonylamino)phenyl]-N-hydroxy-N-methylacetamide], in the data set with white guinea pigs, the “Evaluation (phototoxicity)” value is on record as “No phototoxicity (lower value than 0.5, criterion value to be estimated as no phototoxicity)” and the Phototoxic index was found to be 0. In addition, the “Luciferase activity RARγ” value at RARγ worked out at 11000. For the same compound, in the data set with rabbits, the “P.I.I. (Primary Irritation Index)” value worked out at 0.765 and the “Evaluation (skin irritation)” value is given as “No irritation”. The “Collagen biosynthesis (%)” value with procollagen type I is given as 112%. Besides, the “Luciferase activity RARα” value on RARα is 13400. In addition, in the data set with elastase, the “Elastase expression (%)” value was determined as 82%. Also, the “Collagenase expression (%)” value in the data set on collagenase stood at 70%.
As for `CC(C)c1ccc(C(=O)Nc2ccc(CC(=O)NO)cc2)cc1` [Example 28, N-[4-(N-hydroxycarbamoylmethyl)phenyl][4-isopropylphenyl]carboxyamide], in the data set on white guinea pigs, the “Evaluation (phototoxicity)” value is on record as “No phototoxicity (lower value than 0.5, criterion value to be estimated as no phototoxicity)” and the Phototoxic index was 0. Also, the “Luciferase activity RARγ” value at RARγ came to 10700. Further, in the data set with rabbits, the “P.I.I. (Primary Irritation Index)” value came to 0.765 and the “Evaluation (skin irritation)” value was “No irritation”. Moreover, the “Collagen biosynthesis (%)” value with procollagen type I worked out at 121%. Moreover, the “Luciferase activity RARα” value on RARα came out at 12900. Further, the “Elastase expression (%)” value in the data set with elastase came to 79%. Also, the “Collagenase expression (%)” value in the data set with collagenase is recorded as 67%.
`CN(C(=O)c1ccc(C(=O)NO)cc1)c1ccc(C(C)(C)C)cc1` [Example 52, [4-(N-hydroxycarbamoyl)phenyl]-N-methyl-N-[4-tert-butylphenyl]carboxamide]: in the data set on white guinea pigs, the “Evaluation (phototoxicity)” value was “No phototoxicity (lower value than 0.5, criterion value to be estimated as no phototoxicity)” and the Phototoxic index is listed as 0. At RARγ, the “Luciferase activity RARγ” value turned out to be 12130. In the data set on rabbits, the “P.I.I. (Primary Irritation Index)” value turned out to be 0.412 and the “Evaluation (skin irritation)” value is on record as “No irritation”. Moreover, the “Collagen biosynthesis (%)” value in the data set with procollagen type I is 127%. The “Luciferase activity RARα” value at RARα amounted to 12400. In addition, in the data set with elastase, the “Elastase expression (%)” value is given as 87%. Further, the “Collagenase expression (%)” value in the data set on collagenase amounted to 77%.
Consider `CCCCc1ccc(C(=O)Nc2ccc(C(=O)NO)cc2)cc1` [Example 7, N-[4-(N-hydroxycarbamoyl)phenyl][4-butylphenyl]carboxyamide], for which, in the data set with white guinea pigs, the “Evaluation (phototoxicity)” value is “No phototoxicity (lower value than 0.5, criterion value to be estimated as no phototoxicity)” and the Phototoxic index stood at 0. Besides, the “Luciferase activity RARγ” value on RARγ is recorded as 11700. In the data set with rabbits, the “P.I.I. (Primary Irritation Index)” value amounted to 0.312 and the “Evaluation (skin irritation)” value was “No irritation”. Besides, the “Collagen biosynthesis (%)” value in the data set with procollagen type I was 109%. Further, the “Luciferase activity RARα” value on RARα is given as 12000. Also, the “Elastase expression (%)” value in the data set with elastase is on record as 77%. For the same compound, the “Collagenase expression (%)” value in the data set with collagenase stood at 84%.
On to `Cc1ccc(C(=O)Nc2ccc(CC(=O)NO)cc2)cc1C` [Example 31, N-[4-(N-hydroxycarbamoylmethyl)phenyl][3,4-dimethylphenyl]carboxyamide], for which, in the data set with white guinea pigs, the “Evaluation (phototoxicity)” value is reported as “No phototoxicity (lower value than 0.5, criterion value to be estimated as no phototoxicity)” and the Phototoxic index worked out at 0. Also, the “Luciferase activity RARγ” value on RARγ is recorded as 10700. Moreover, in the data set on rabbits, the “P.I.I. (Primary Irritation Index)” value is listed as 0.567 and the “Evaluation (skin irritation)” value is “No irritation”. For the same compound, the “Collagen biosynthesis (%)” value in the data set on procollagen type I is recorded as 109%. Further, the “Luciferase activity RARα” value at RARα is on record as 23100. Further, in the data set on elastase, the “Elastase expression (%)” value worked out at 63%. Further, the “Collagenase expression (%)” value with collagenase turned out to be 81%.
